# Experimental data: publication PMC10817917, “Alkyl deoxyglycoside-polymyxin combinations against critical priority carbapenem-resistant gram-negative bacteria” (Scientific Reports, 2024)
# “And” between values parts separate entries of the source, which are not always exact repeats. Identical values can stand only once. Like-named read-outs stand apart in the source and are kept apart here.
# How the values were obtained:
# E. coli ATCC 25922 = assay: Broth microdilution MIC/MBC, glycosides with or without polymyxins; type: cell-based, Escherichia coli; conditions: for MIC: Escherichia coli, ATCC25922
# Caco-2 cells = assay: Resazurin cell viability assay (cytotoxicity); type: cell-based, human; conditions: Homo sapiens, Caco-2, 72 h, read-out: IC50
# Summary of the method: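 HEK-293T and Caco-2 cells (1.5 × 10^4/well, RPMI 1640 with 10% FBS) exposed 72 h at 37 °C to glycosides at final 100 to 10 µM, alone or with PMB or colistin at final 0.5, 0.25 or 0.125 µg/mL; max DMSO 0.33%. Resazurin added 4 h, read 570/600 nm; IC50 from dose-response fits, mean ± SD of three replicates.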
# K. pneumoniae CQ1942 = assay: Broth microdilution MIC, glycosides with or without polymyxins; type: cell-based, Klebsiella pneumoniae; conditions: for MIC: Klebsiella pneumoniae, CQ1942
# E. cloacae CQ1941 = assay: Broth microdilution MIC/MBC, glycosides with or without polymyxins; type: cell-based; conditions: for MIC: Enterobacter cloacae, CQ1941
# [1] = alone, read-out: MICA (MIC of each compound individually)
# [2] = combination with the lowest FICI
# [3] = compound + colistin, lowest FICI
structure (smiles),measurement,setting,value
"CCCCCCCCCCCCO[C@@H]1O[C@H](C)C[C@H](O)[C@H]1O [Compound 2, dodecyl 4,6-dideoxy-α/β-D-xylo-hexopyranoside]",MIC of colistin in combination with the compound,"E. coli ATCC 25922; Cpd conc. 0.4 μg/mL, strain A",> 0.5 µg/mL
same,MIC of colistin in combination with the compound,"E. coli ATCC 25922; Cpd conc. 0.8 μg/mL, strain A",0.5 µg/mL
same,MIC of colistin in combination with the compound,"E. coli ATCC 25922; Cpd conc. 3.125 μg/mL, strain A",≤ 0.06 µg/mL
same,MIC of colistin in combination with the compound,"E. coli ATCC 25922; Cpd conc. 6.25 μg/mL, strain A",≤ 0.06 µg/mL
same,MIC of colistin in combination with the compound,"E. coli ATCC 25922; Cpd conc. 12.5 μg/mL, strain A",≤ 0.06 µg/mL
same,MIC of colistin in combination with the compound,"E. coli ATCC 25922; Cpd conc. […], strain A",0.5 µg/mL
same,MIC,"E. coli ATCC 25922; agent alone, no adjuvant (polymyxin conc. 0), strain A, read-out: MIC",> 100 µg/mL
same,MIC,E. coli ATCC 25922; [1],> 100 µg/mL
same,MIC of compound in combination with PMB,"E. coli ATCC 25922; PMB 0.5 μg/mL, strain A",0.8 µg/mL
same,MIC of compound in combination with colistin,"E. coli ATCC 25922; colistin 0.06 μg/mL, strain A",3.1 µg/mL
same,MBC of compound in combination with colistin,"E. coli ATCC 25922; colistin 0.125 μg/mL, strain A",3.1|3.1 μg/mL
same,MIC of compound in combination with colistin,"E. coli ATCC 25922; colistin 0.125 μg/mL, strain A",3.1 μg/mL and 3.1|3.1 μg/mL
same,MIC of compound in combination with colistin,"E. coli ATCC 25922; colistin 0.25 μg/mL, strain A",3.1 µg/mL
same,MIC of compound in combination with colistin,"E. coli ATCC 25922; colistin 0.5 μg/mL, strain A",0.4 µg/mL
same,MICA(A + B) (MIC of compound in combination with colistin),E. coli ATCC 25922; [2],3.125 µg/mL
same,MICB(A + B) (MIC of colistin in combination with compound),E. coli ATCC 25922; [2],0.06 µg/mL
same,Interpretation (of FICI),E. coli ATCC 25922; compound + colistin,Synergy (Values ≤ 0.5 were considered synergistic)
same,FICI,E. coli ATCC 25922; [3],0.14
same,IC50,Caco-2 cells; Colistin 0.125 μg/mL,55.7 ± 0.52 µM
same,IC50,Caco-2 cells; Colistin 0.25 μg/mL,58.09 ± 0.33 µM
same,IC50,Caco-2 cells; Colistin 0.5 μg/mL,53.4 ± 5.35 µM
same,IC50,Caco-2 cells; No polymyxin,54.8 ± 0.61 µM
same,IC50,Caco-2 cells; PMB 0.25 μg/mL,58.8 ± 2.66 µM
same,IC50,Caco-2 cells; PMB 0.5 μg/mL,56.4 ± 3.9 µM
same,IC50,Caco-2 cells; tested alone (no polymyxin adjuvant),17.4 µg/mL
same,MIC of colistin in combination with the compound,"K. pneumoniae CQ1942; Cpd conc. 0.4 μg/mL, strain E",0.5 µg/mL
same,MIC of colistin in combination with the compound,"K. pneumoniae CQ1942; Cpd conc. 0.8 μg/mL, strain E",0.5 µg/mL
same,MIC of colistin in combination with the compound,"K. pneumoniae CQ1942; Cpd conc. 3.125 μg/mL, strain E",0.5 µg/mL
same,MIC of colistin in combination with the compound,"K. pneumoniae CQ1942; Cpd conc. 6.25 μg/mL, strain E",0.25 µg/mL
same,MIC of colistin in combination with the compound,"K. pneumoniae CQ1942; Cpd conc. 12.5 μg/mL, strain E",0.25 µg/mL
same,MIC of colistin in combination with the compound,"K. pneumoniae CQ1942; Cpd conc. […], strain E",0.5 µg/mL
same,MIC,"K. pneumoniae CQ1942; agent alone, no adjuvant (polymyxin conc. 0), strain E, read-out: MIC",> 100 µg/mL
same,MIC,K. pneumoniae CQ1942; [1],> 100 µg/mL
same,MIC of compound in combination with PMB,"K. pneumoniae CQ1942; PMB 0.25 μg/mL, strain E",> 100 µg/mL
same,MIC of compound in combination with PMB,"K. pneumoniae CQ1942; PMB 0.5 μg/mL, strain E",≤ 0.1 µg/mL
same,MIC of compound in combination with colistin,"K. pneumoniae CQ1942; colistin 0.06 μg/mL, strain E",> 100 µg/mL
same,MIC of compound in combination with colistin,"K. pneumoniae CQ1942; colistin 0.125 μg/mL, strain E",> 100 µg/mL
same,MIC of compound in combination with colistin,"K. pneumoniae CQ1942; colistin 0.25 μg/mL, strain E",6.3 µg/mL
same,MIC of compound in combination with colistin,"K. pneumoniae CQ1942; colistin 0.5 μg/mL, strain E",≤ 0.1 µg/mL
same,MICA(A + B) (MIC of compound in combination with colistin),K. pneumoniae CQ1942; [2],6.25 µg/mL
same,MICB(A + B) (MIC of colistin in combination with compound),K. pneumoniae CQ1942; [2],0.25 µg/mL
same,Interpretation (of FICI),K. pneumoniae CQ1942; compound + colistin,Additive (from 0.5 to 1.0 were additive)
same,FICI,K. pneumoniae CQ1942; [3],0.53
same,MIC of colistin in combination with the compound,"E. cloacae CQ1941; Cpd conc. 0.4 μg/mL, strain D",0.5 µg/mL
same,MIC of colistin in combination with the compound,"E. cloacae CQ1941; Cpd conc. 0.8 μg/mL, strain D",0.5 µg/mL
same,MIC of colistin in combination with the compound,"E. cloacae CQ1941; Cpd conc. 3.125 μg/mL, strain D",0.25 µg/mL
same,MIC of colistin in combination with the compound,"E. cloacae CQ1941; Cpd conc. 6.25 μg/mL, strain D",0.25 µg/mL
same,MIC of colistin in combination with the compound,"E. cloacae CQ1941; Cpd conc. 12.5 μg/mL, strain D",0.125 µg/mL
same,MIC of colistin in combination with the compound,"E. cloacae CQ1941; Cpd conc. […], strain D",0.25 µg/mL
same,MIC,"E. cloacae CQ1941; agent alone, no adjuvant (polymyxin conc. 0), strain D, read-out: MIC",> 100 µg/mL
same,MIC,E. cloacae CQ1941; [1],> 100 µg/mL
same,MIC of compound in combination with PMB,"E. cloacae CQ1941; PMB 0.25 μg/mL, strain D",12.5 µg/mL
same,MIC of compound in combination with PMB,"E. cloacae CQ1941; PMB 0.5 μg/mL, strain D",≤ 0.1 µg/mL
same,MIC of compound in combination with colistin,"E. cloacae CQ1941; colistin 0.06 μg/mL, strain D",> 100 µg/mL
same,MBC of compound in combination with colistin,"E. cloacae CQ1941; colistin 0.125 μg/mL, strain D",25 µg/mL
same,MIC of compound in combination with colistin,"E. cloacae CQ1941; colistin 0.125 μg/mL, strain D",12.5 µg/mL
same,MIC of compound in combination with colistin,"E. cloacae CQ1941; colistin 0.25 μg/mL, strain D",1.6 µg/mL
same,MIC of compound in combination with colistin,"E. cloacae CQ1941; colistin 0.5 μg/mL, strain D",≤ 0.1 µg/mL
same,MICA(A + B) (MIC of compound in combination with colistin),E. cloacae CQ1941; [2],12.5 µg/mL
same,MICB(A + B) (MIC of colistin in combination with compound),E. cloacae CQ1941; [2],0.125 µg/mL
same,FICI,E. cloacae CQ1941; [3],0.31
